This is an account of results in ChEMBL document CHEMBL5154734, “Novel potent benzimidazole-based microsomal prostaglandin E2 synthase-1 (mPGES-1) inhibitors derived from BRP-201 that also inhibit leukotriene C4 synthase” (Eur J Med Chem, 2022).

The source made the active and inactive calls. The calls are words filed in the database; no cut-off is given here.

Broadly, the IC50 is the concentration that inhibits the measured activity by half.

In one data set the target is T1, Prostaglandin E synthase (Homo sapiens, UniProt O14684).
T1 sequence (O14684 whole entry): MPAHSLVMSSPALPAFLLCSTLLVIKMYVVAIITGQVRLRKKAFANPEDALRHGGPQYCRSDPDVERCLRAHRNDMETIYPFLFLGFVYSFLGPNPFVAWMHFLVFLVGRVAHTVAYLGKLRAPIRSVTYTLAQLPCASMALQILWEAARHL
Put plainly: Inhibition of mPGES-1 activity in human A549 microsomal preparation using PGH2 as substrate preincubated for 15 mins followed by substrate addition for 1 min by RP-HPLC analysis. It counts as microsomes, Microsome.

Data set [1] concerns the target T2, Prostaglandin E synthase (Homo sapiens) (UniProt O14684).
T2 sequence (whole entry): T1 sequence (O14684 whole entry)
In words: Inhibition of mPGES-1 activity in IL-1beta human A549 microsomal preparation at 10 uM using PGH2 as substrate preincubated for 15 mins followed by substrate addition for 1 min by RP-HPLC analysis. It counts as microsomes. As to conditions: Microsome, time 16.0 min.

The test system of the next data set is Neutrophil. In words: Cytotoxicity against human neutrophils assessed as reduction in cell viability at 10 uM by LDH release assay. In kind it is toxicity, cell-based. Background: LDH leaks from cells whose membrane has failed.
Data set [2] addresses T3, Polyunsaturated fatty acid 5-lipoxygenase (Homo sapiens) (UniProt P09917).
T3 sequence (whole entry): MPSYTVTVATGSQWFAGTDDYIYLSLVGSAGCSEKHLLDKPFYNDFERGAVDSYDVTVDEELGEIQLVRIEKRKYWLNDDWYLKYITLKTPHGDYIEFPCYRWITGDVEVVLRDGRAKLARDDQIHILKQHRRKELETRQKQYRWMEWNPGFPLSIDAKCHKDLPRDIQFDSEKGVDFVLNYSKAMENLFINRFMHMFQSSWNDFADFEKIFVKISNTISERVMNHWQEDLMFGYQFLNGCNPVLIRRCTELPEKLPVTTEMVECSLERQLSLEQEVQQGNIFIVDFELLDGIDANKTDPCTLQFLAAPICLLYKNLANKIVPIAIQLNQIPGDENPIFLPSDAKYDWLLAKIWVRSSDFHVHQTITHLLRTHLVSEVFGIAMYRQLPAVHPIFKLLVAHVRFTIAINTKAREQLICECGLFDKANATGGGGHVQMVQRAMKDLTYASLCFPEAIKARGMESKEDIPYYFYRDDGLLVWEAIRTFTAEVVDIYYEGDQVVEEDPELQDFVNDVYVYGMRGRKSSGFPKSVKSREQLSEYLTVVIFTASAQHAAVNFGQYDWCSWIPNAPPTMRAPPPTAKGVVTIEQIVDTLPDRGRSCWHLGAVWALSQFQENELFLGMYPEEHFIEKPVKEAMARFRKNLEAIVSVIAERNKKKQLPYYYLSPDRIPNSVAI
In words: Inhibition of 5-LOX in human neutrophils assessed as reduction in FLAP-dependent 5-LO product LTB4 formation at upto 10 uM preincubated for 10 mins followed by A23187 addition and measured after 10 mins by RP-HPLC and UV detection method. It counts as cell-based. To be noted: Neutrophil.

The target in data set [3] is T4, Leukotriene C4 synthase (Homo sapiens, UniProt Q16873).
T4 sequence (Q16873 whole entry): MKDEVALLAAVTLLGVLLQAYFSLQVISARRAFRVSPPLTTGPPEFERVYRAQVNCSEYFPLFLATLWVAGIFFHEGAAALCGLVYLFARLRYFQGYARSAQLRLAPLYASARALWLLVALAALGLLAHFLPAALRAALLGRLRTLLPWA
Put plainly: Inhibition of human recombinant LTC4S expressed in HEK293 cell microsomal fraction preincubated for 10 mins followed by LTA4-methyl ester addition and measured after 10 mins by UPLC-MS/MS analysis. In kind it is microsomes, Microsome.

The target in data set [4] is T5, Polyunsaturated fatty acid 5-lipoxygenase (Homo sapiens, UniProt P09917).
T5 sequence (P09917 whole entry): T3 sequence (whole entry)
Put plainly: Inhibition of human recombinant 5-LOX expressed in Escherichia coli BL21 assessed as inhibition of […] 5-LO product LTB4 formation preincubated for 15 mins followed by arachidonic acid addition and measured after 10 mins by RP-HPLC analysis.

Data set [5] deals with T4, Leukotriene C4 synthase. Put plainly: Inhibition of recombinant LTC4S (unknown origin) expressed in COS cells. In kind it is cell-based.

For the compound `S=c1[nH]nc(-c2ccc3[nH]c(Cc4ccc(OCc5ccccc5)cc4)nc3c2)o1`, on Prostaglandin E synthase, the midpoint of inhibition, the IC50, lay at 1.6 µM.
For `COc1cc(-c2nc3cc(-c4n[nH]c(=S)o4)ccc3[nH]2)ccc1OCc1ccccc1`, the inhibition entry in data set [1] was “Active”.
In the case of `O=C(Nc1cccc(-c2n[nH]c(=S)o2)c1)c1ccc(OCc2ccccc2)cc1`, 2.5 µM corresponded to half-maximal inhibition on Prostaglandin E synthase (IC50).
`O=C(Nc1cc(-c2n[nH]c(=S)o2)ccc1F)c1ccc(OCc2ccccc2)cc1`: at Prostaglandin E synthase, inhibition was half-maximal at 2.2 µM (IC50).
In the case of `CC(c1ccc(Oc2ccccc2)cc1)c1nc2cc(-c3n[nH]c(=S)o3)ccc2[nH]1` (configuration not stated), in the data set on Neutrophil, the Activity result is on record as “Non-Toxic”. Besides, the IC50 was 0.09 µM against Prostaglandin E synthase, 0.4 µM at Leukotriene C4 synthase [3] and 2.62 µM in data set [4]. In data set [2], the inhibition result was “Active”.
The matching figures for `S=c1[nH]nc(-c2ccc3[nH]c(-c4ccc(Oc5ccccc5)cc4)nc3c2)o1`: “Non-Toxic”, 0.03 µM, 2.8 µM, 3.71 µM and “Active”.
In the case of `S=c1[nH]nc(-c2ccc3[nH]c(-c4ccc(OCc5ccccc5)cc4)nc3c2)o1`, the inhibition entry in data set [1] and in data set [2] was “Active” in each case. In the data set with Neutrophil, the Activity entry was “Non-Toxic”. The IC50 on Prostaglandin E synthase is 0.03 µM; at Leukotriene C4 synthase [3] it was 0.7 µM; in data set [4], 1.26 µM.
Turning to `CC(C)c1ccc2c(c1)c(SC(C)(C)C)c(CC(C)(C)C(=O)O)n2Cc1ccc(Cl)cc1`, the IC50 at Leukotriene C4 synthase [5] was determined as 3 µM.
Regarding `Cn1c(-c2ccc(OCc3ccccc3)cc2)nc2cc(-c3n[nH]c(=S)o3)ccc21`, the midpoint of inhibition against Prostaglandin E synthase, the IC50, lay at 1.06 µM.
